Data taken from US8039488B2, “Methods and compositions for inhibition of angiogenesis” (Children's Medical Center Corporation, priority 1996, dated 2011).

What was measured:
[1] = tested on: bFGF induced angiogenesis; assay: Mouse corneal micropocket assay, bFGF pellets; assay type: in vivo, mice; conditions: for inhibition of bFGF induced neovascularization: dose not given; for inhibition in vivo at 200 mg/kg: dose 200 mg/kg once daily; for inhibition in vivo at 100 mg/kg: dose 100 mg/kg once daily, area of corneal neovascularization vs controls
Description: (§1) Six to eight week old C57B 16 male mice were obtained from Jackson Laboratories, MA. The mice were anesthetized, and 0.4×0.4 mm pockets were made in the stroma of the mouse cornea adjacent to the limbus. Pellets containing 80 ng of either bFGF or VEGF were implanted in the pellets. The pellets containing bFGF were implanted 1.0-1.2 mm from the limbal vessels, while the pellets containing VEGF were implanted 0.5-0.7 mm from the limbal vessels. Erythromycin was then topically applied.
(§2) The vascular response to the pellets was measured by maximal vessel length and number of clock hours of neovascularization 5 days after implantation of the bFGF pellets and 6 days after implantation of the VEGF pellets. The area of corneal neovascularization was calculated using the following formula which best approximated the area of neovascularization: Area (mm^2)=[π×clock hours×length (mm)×0.2 (mm)].
(§3) Inhibitory effect is expressed in percentage representing the area of corneal neovascularization by either bFGF or VEGF compared to controls (n=8/experiment) of the experiments in which that particular drug was tested. N=the number of eyes that were tested and drugs were given once daily either sc, ip or oral as described.
as §1, with “implanted.” for “implanted in the pellets.”
as §2, with “The mice were then treated with thalidomide, indomethacin, sulindac, or combinations of thalidomide with either indomethacin or sulindac. The vascular” for “The vascular”, “which best approximates the area” for “which best approximated the area”
Six to eight week old C57B16 male mice, obtained from Jackson Laboratories, MA, were anesthetized, and 0.4×0.4 mm pockets were made in the stroma of the mouse cornea adjacent to the limbus. Pellets containing 80 ng of bFGF were implanted 1.0-1.2 mm from the limbal vessels. Erythromycin was then topically applied.
(§4) The mice were then treated with sulindac, or one of the sulindac derivatives, sulindac sulfone or sulindac sulfide. The vascular response to the pellets was measured by maximal vessel length and number of clock hours of neovascularization 5 days after implantation of the bFGF pellets. The area of corneal neovascularization was calculated using the following formula which best approximates the area of neovascularization: Area (mm^2)=[π×clock hours×length (mm)×0.2 (mm)].
Inhibitory effect is expressed in percentage representing the area of corneal neovascularization by bFGF compared to controls (n=8/experiment. N=the number of eyes that were tested and drugs were given once daily either sc, ip or oral as described.

[2] = tested on: VEGF induced angiogenesis; assay: Mouse corneal micropocket assay, VEGF pellets; assay type: in vivo, mice; conditions: 6 days after implantation
Description: as §1, §2, §3
as §1, with “implanted.” for “implanted in the pellets.”
as §4, with “with thalidomide, indomethacin,” for “with”, “combinations” for “one”, “thalidomide with either indomethacin” for “the sulindac derivatives, sulindac sulfone”, “sulindac.” for “sulindac sulfide.”, “bFGF pellets and 6 days after implantation of the VEGF” for “bFGF”

[3] = tested on: bFGF induced angiogenesis; assay: Angiogenesis in the eye, assay described in Example 2, bFGF; assay type: in vivo, rabbit
Description: (§5) Angiogenesis in the eye, in the assay described in Example 2, is produced by the presence of bFGF (basic fibroblastic growth factor) and VEGF (vascular endothelial cell growth factor).
(§6) Pellets for implantation into rabbit corneas were made by mixing 110 μl of saline containing 12 μg of recombinant bFGF (Takeda Pharmaceuticals-Japan) with 40 mg of sucralfate (Bukh Meditec-Denmark); this suspension was added to 80 μl of 12% hydron (Interferon Sciences) in ethanol. 10 μl aliquots of this mixture was then pipetted onto Teflon pegs and allowed to dry producing approximately 17 pellets. A pellet was implanted into corneal micropockets of each eye of an anesthetized female New Zealand white rabbit, 2 mm from the limbus followed by topical application of erythromycin ointment onto the surface of the cornea. The animals were fed daily from 2 days post-implantation by gastric lavage with either drug suspended in 0.5% carboxymethyl cellulose or 0.5% carboxymethyl cellulose alone. Thalidomide was purchased from Andrulus Pharmaceutical (Maryland) and the EM-12 and Supidimide were kindly provided by Grunenthal GMBH (Germany). The animals were examined with a slit lamp every other day in a masked manner by the same corneal specialist. The area of corneal neovascularization was determined by measuring with a reticule the vessel length (L) from the limbus and the number of clock hours (C) of limbus involved. A formula was used to determine the area of a circular band segment: C/12*3.1416 [r^2−(r−L)^2] where r=6 mm the measured radius of the rabbit cornea.

[4] = tested on: VEGF induced angiogenesis; assay: Angiogenesis in the eye, assay described in Example 2, VEGF; assay type: in vivo, rabbit
Description: as §5, §6

[5] = tested on: bFGF induced corneal neovascularization; assay: Rabbit cornea angiogenesis assay; assay type: in vivo
Description: as §6
Pellets containing bFGF and sucralfate were implanted into micropockets of both corneas of rabbits according to Example II. Vessel ingrowth into clear cornea from the limbus was first noted on day 2 and treatments (200 mg/kg orally) were begun on this day. The area of corneal neovascularization was measured from day 4 through day 12. Day 8 measurements were used for comparison between groups. […] Statistical analysis was performed with ANOVA with ranked data to account for interexperimental variation and to guard against a non-normal distribution of data (i.e. outliers) by utilizing a nonparametric method.

[6] = tested on: V2-carcinoma; assay: V2-carcinoma tumor assay in rabbits; assay type: in vivo, rabbit; conditions: 17 days after start of treatment
Description: New Zealand White female rabbits, weighing approximately 1.5 kg, obtained from Charles River, Mass., were used for propagating the V2-carcinoma. This tumor originates from a Shope virus-induced papilloma. Small 0.5×0.5 cm pieces were implanted intramuscularly in the right thigh. Treatment with 200 mg/kg/day thalidomide (n=14), 60 mg/kg/day sulindac (n=5), or a combination of thalidomide and sulindac (n=10) was started at day 10 after tumor implantation, when the mean volume of the tumor was 6 cm^3. The control animals (n=13) were treated with methylcellulose. […] The data were collected in 3 separate experiments and each bar represents the standard error of the mean.

[7] = tested on: Crohn's disease; assay: Treatment of a patient with Crohn's disease; assay type: in vivo, human; conditions: 100 mg twice a day orally, one week
Description: A patient with Crohn's disease was treated using the methods of the present invention. […] Thalidomide was orally administered to them at a dosage of 100 mg twice a day.

[8] = tested on: chick embryo chorioallantoic membrane; assay: Chick embryo chorioallantoic membrane (CAM) assay; assay type: in vivo; conditions: examined 48 hours after implantation
Excerpt: The chick embryo chorioallantoic membrane assay described by Crum et al., Science 230:1375 et seq. […] See also, U.S. Pat. No. 5,001,116, hereby incorporated by reference, which describes the CAM assay at col. 7 of the patent. Briefly, fertilized chick embryos were removed from their shell on day 3 or 4, and a methylcellulose disc containing the compound was implanted on the chorioallantoic membrane.

[9] = tested on: bFGF induced corneal neovascularization; assay: Rabbit cornea angiogenesis assay; assay type: in vivo; conditions: 100 mg/kg/day
[10] = Mus musculus, 120 h, dose 25 mg/kg once daily, 5 days after implantation
[11] = Mus musculus, 120 h, 5 days after implantation

Molecule: O=C(O)c1cc2cc(Cc3cccnc3)ccc2o1 [furegrelate sodium]
- inhibition of bFGF induced neovascularization [1]: 22%

Molecule: CC1=C(CC(=O)O)c2cc(F)ccc2/C1=C\c1ccc(S(C)(=O)=O)cc1 [Sulindac sulfone, sulindac sulfone]
- % Inhibition of bFGF induced angiogenesis ([1]; dose 25 mg/kg once daily, 5 days after implantation): 31%
- inhibition of bFGF induced neovascularization [1]: 31%

Molecule: CC(C)Cc1ccc(C(C)C(=O)O)cc1 (stereo not shown) [Ibuprofen, ibuprofen]
- % Inhibition of VEGF induced angiogenesis ([2]; dose 25 mg/kg once daily): 8%
- % Inhibition of bFGF induced angiogenesis ([3]; dose 20 mg/kg): 7%
- inhibition in vivo at 25 mg/kg [1, 10]: 6%
- % Inhibition of VEGF induced angiogenesis ([4]; dose 20 mg/kg): 11%

Molecule: O=C1CCC(N2C(=O)c3ccccc3C2=O)C(=O)O1 (stereo not shown) [PGA]
- inhibitory activity on corneal neovascularization, in words ([5]; 200 mg/kg orally): weaker inhibitory effects than thalidomide

Molecule: CC(=O)Oc1ccccc1C(=O)O [Aspirin, aspirin]
- % Inhibition of bFGF induced angiogenesis ([3]; dose 100 mg/kg): 8%

Molecule: CC1=C(CC(=O)O)c2cc(F)ccc2/C1=C\c1ccc([S+](C)[O-])cc1 (stereo not shown) [Sulindac, (Z)-5-Fluoro-2-methyl-1-[[4-(methyl-sulfinyl)phenyl]methylene]-1H-indene-3-acetic acid]
- % Inhibition of VEGF induced angiogenesis ([2]; dose 25 mg/kg once daily): 55%
- % Inhibition of bFGF induced angiogenesis ([3]; dose 25 mg/kg): 52%
- inhibition of tumor growth ([6]; 60 mg/kg/day oral): 35%
- inhibition in vivo at 25 mg/kg [1, 10]: 50%
- % Inhibition of VEGF induced angiogenesis ([4]; dose 25 mg/kg): 54%

Molecule: CCCC(C(=O)OCCN(CC)CC)(c1ccccc1)c1ccccc1.Cl [SKF525AHCL]
- inhibition of bFGF induced neovascularization [1]: 25%

Molecule: O=C1CCC(N2C(=O)c3ccccc3C2=O)C(=O)N1 (stereo not shown) [Thalidomide, thalidomide]
- % Inhibition of VEGF induced angiogenesis ([2]; dose 200 mg/kg once daily): 40%
- gastrointestinal symptoms, including diarrhea and cramping [7]: lessened
- skin lesion on the lower leg [7]: resolved
- % Inhibition of bFGF induced angiogenesis ([3]; dose 200 mg/kg): 42%
- inhibition of tumor growth ([6]; 200 mg/kg/day oral): 55%
- inhibition in vivo at 200 mg/kg [1, 11]: 41%
- density of vessel ingrowth ([5]; 200 mg/kg orally): markedly reduced
- sedation of the rabbits ([5]; 200 mg/kg orally): did not demonstrate obvious sedation
- onset of inhibition of angiogenesis ([5]; 200 mg/kg orally (FIG. 7)): after only two doses
- inhibition of the area of vascularized cornea, range in three experiments ([5]; 200 mg/kg orally, day 8): 30-51%
- median inhibition of the area of vascularized cornea ([5]; 200 mg/kg orally, day 8): 36%
- % Inhibition of VEGF induced angiogenesis ([4]; dose 200 mg/kg): 44%

Molecule: O=C(O)CCC(C(=O)O)N1C(=O)c2ccccc2C1=O (racemic) [Phthaloyl glutamic acid, N-phthaloyl-DL-glutamic acid]
- inhibition of angiogenesis in the rabbit cornea assay ([5]; 200 mg/kg): 29%
- inhibitory activity on corneal neovascularization, in words ([5]; 200 mg/kg orally): weaker inhibitory effects than thalidomide
- CAM assay result (avascular zone around the methylcellulose disc) [8]: avascular zone with a mild scar

Molecule: CO[C@@H]1[C@H](OC(=O)NC(=O)CCl)CC[C@]2(CO2)[C@H]1[C@@]1(C)O[C@@H]1CC=C(C)C [AGM 1470]
- % Inhibition of bFGF induced angiogenesis ([3]; dose 30 mg/kg qod): 48%

Molecule: C[C@]12CCC(=O)C=C1CC[C@@H]1[C@@H]2[C@@H](O)C[C@@]2(C)[C@H]1CC[C@]2(O)C(=O)CO [Hydrocortisone, hydrocortisone]
- % Inhibition of bFGF induced angiogenesis ([3]; dose 20 mg/kg): 50%
- % Inhibition of VEGF induced angiogenesis ([4]; dose 20 mg/kg): 40%

Molecule: C[C@H](Cc1ccc(O)c(O)c1)[C@@H](C)Cc1ccc(O)c(O)c1 [NDGA, nordihydroguiaretic acid]
- inhibition in vivo at 25 mg/kg [1, 10]: 30%

Molecule: CSc1ccc(/C=C2/C(C)=C(CC(=O)O)c3cc(F)ccc32)cc1 [Sulindac sulfide, sulindac sulfide]
- inhibition in vivo at 25 mg/kg [1, 10]: 31%
- % inhibition ([1]; dose 50 mg/kg once daily, bFGF pellets, 5 days after implantation): 34%
- inhibition of bFGF induced neovascularization [1]: 34%

Molecule: O=C1CCC(N2C(=O)c3ccccc3S2(=O)=O)C(=O)N1 (stereo not shown) [Supidimide]
- inhibitory activity on corneal neovascularization, in words ([5]; 200 mg/kg orally): no activity
- area of corneal neovascularization, % of control ([5]; 200 mg/kg orally, day 8): 107 % of control

Molecule: O=C1CCN(c2ccccc2)N1 [Phenidone, phenidone]
- inhibition in vivo at 100 mg/kg [1, 11]: 17%

Molecule: O=c1ccc2cc(O)c(O)cc2o1 [Esculetin, esculetin]
- inhibition in vivo at 200 mg/kg [1, 11]: 15%

Molecule: CS(=O)(=O)Nc1ccc([N+](=O)[O-])cc1OC1CCCCC1 [NS-398]
- inhibition of bFGF induced neovascularization [1]: 25%

Molecule: O=c1c(O)c(-c2ccc(O)c(O)c2)oc2cc(O)cc(O)c12 [Quercetin, quercetin]
- inhibition in vivo at 300 mg/kg ([1]; Mus musculus, 120 h, dose 300 mg/kg once daily, 5 days after implantation): 18%

Molecule: O=C1CCC(N2Cc3ccccc3C2=O)C(=O)N1 (stereo not shown) [EM-12]
- % inhibition in the rabbit cornea assay [9]: 21%
- median inhibition of the area of vascularized cornea ([5]; 200 mg/kg orally, day 8): 42%
- % inhibition in the rabbit cornea assay ([5]; 200 mg/kg/day): 43%

Molecule: carbomethylheptyl imidazole
- inhibition of bFGF induced neovascularization [1]: 32%

Molecule: COc1ccc2c(c1)c(CC(=O)O)c(C)n2C(=O)c1ccc(Cl)cc1 [Indomethacin, indomethacin]
- % Inhibition of VEGF induced angiogenesis ([2]; dose 5 mg/kg once daily): 61%
- inhibition in vivo at 5 mg/kg ([1]; Mus musculus, 120 h, dose 5 mg/kg once daily, 5 days after implantation): 59%

Molecule: CC(=O)Nc1ccc(O)cc1 [Acetaminophen]
- % Inhibition of bFGF induced angiogenesis ([3]; dose 100 mg/kg): 0%
- inhibition in vivo at 100 mg/kg [1, 11]: 0%
- % Inhibition of VEGF induced angiogenesis ([4]; dose 100 mg/kg): 0%
